Results as given in patent US20250353873A1, “COMPOUNDS AND METHODS FOR MODULATING APOE EXPRESSION” (Ionis Pharmaceuticals, Inc., priority 2024, published 2025).
Strand notation (5' to 3'): a small letter for the sugar, then the base; units joined by * are phosphorothioate-linked, units joined directly phosphodiester-linked; [ ] holds rarer units or linkages, { } end groups; capitals alone tell only the bases. [ms] = mesyl phosphoramidate linkage; e = 2'-O-(2-methoxyethyl) (MOE); k = constrained ethyl (cEt); [5mC] = 5-methylcytosine; d = 2'-deoxy (DNA)

How the values were obtained:
human APOE RNA [1] = assay: Activity in APOE C57BL/6NTac-Apoeem7250 knock-in mice, single ICV bolus, 20 weeks (Example 13); format: in vivo; settings: single ICV bolus 300 μg, 20 weeks post treatment, normalized to mouse Ppia
Method in brief: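 Knock-in mice (n=4) given a single ICV bolus of 300 μg oligonucleotide, PBS as control. After 20 weeks, human APOE RNA in cortex and spinal cord measured by RT-qPCR, normalized to mouse Ppia, expressed as % of PBS-treated animals.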

human APOE RNA [2] = assay: Activity in APOE C57BL/6NTac-Apoeem7250 knock-in mice, single ICV bolus, 8 weeks (Example 11); format: in vivo; settings: single ICV bolus 300 μg, 8 weeks post treatment, normalized to mouse Ppia
Method in brief: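 Human APOE knock-in C57BL/6NTac mice given one ICV bolus of 300 μg oligonucleotide; PBS-dosed group as control. At 8 weeks, cortex and spinal cord RNA measured by qRT-PCR (human probe RTS3073), normalized to mouse Ppia, expressed as % of PBS control.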

human APOE RNA [3] = assay: Activity in APOE C57BL/6NTac-Apoeem7250 knock-in mice, single ICV bolus, 16 weeks (Example 12); format: in vivo; settings: single ICV bolus 300 μg, 16 weeks post treatment, normalized to mouse Ppia
Method in brief: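 Knock-in mice (3-4 per group) received one ICV bolus of 300 μg oligonucleotide, PBS as control. After 16 weeks, human APOE RNA in cortex and spinal cord measured by RT-qPCR, normalized to mouse Ppia, and reported as % of PBS control.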

human APOE RNA [4] = assay: Activity in APOE C57BL/6NTac-Apoeem7250 knock-in mice, single ICV bolus, 4 weeks (Example 10); format: in vivo; settings: single ICV bolus 300 μg, 4 weeks post treatment, normalized to mouse Ppia
Method in brief: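 Knock-in mice (2–4 per group) received one 300 μg ICV bolus of oligonucleotide or PBS. After four weeks, human APOE RNA in cortex and spinal cord measured by RT-qPCR (primer probe set RTS3073), normalized to mouse Ppia, expressed as % of PBS controls.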

human APOE RNA [5] = assay: Dose-dependent inhibition of human APOE RNA in HepG2 cells, electroporation, 50,000 cells per well, RT-PCR normalized to GAPDH (Example 4, Tables 8-10); format: cell-based
Method in brief: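 HepG2 cells, 50,000 per well, electroporated with modified oligonucleotide at various concentrations. APOE RNA quantified by RT-PCR with human primer probe set RTS3073, normalized to GAPDH. Values are percent APOE RNA relative to untreated control cells.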

Row | Substance | APOE RNA (% control) Cortex (human APOE RNA [1]) | APOE RNA (% control) Spinal Cord (human APOE RNA [1]) | APOE RNA (% control) Cortex (human APOE RNA [2]) | APOE RNA (% control) Spinal Cord (human APOE RNA [2]) | APOE RNA (% control) Cortex (human APOE RNA [3]) | APOE RNA (% control) Spinal Cord (human APOE RNA [3]) | APOE RNA (% control) Cortex (human APOE RNA [4]) | APOE RNA (% control) Spinal Cord (human APOE RNA [4]) | further results
1 | 1778119 (eA*e[5mC]eTeTeG*eG*dT*dG[ms]dA[ms]dA*dT*d[5mC]*dT*dT*dT*dA[ms]kTeT*eA*eA; antisense) [Compound 1778119] | 84 % control | 51 % control | 52 % control | 27 % control | 62 % control | 38 % control | 45 % control | 56 % control | 
2 | 1778113 (eA*e[5mC]eTeTkG*kG*dT*dG[ms]dA[ms]dA*dT*d[5mC]*dT*dT*dT*dA[ms]eT*eT*eA*eA; antisense) [Compound 1778113] | 61 % control | 24 % control | 53 % control | 28 % control | 46 % control | 27 % control | 48 % control | 88 % control | 
3 | 1785616 (k[5mC]*dT[ms]dT[ms]kG*dG[ms]kT*dG[ms]dA[ms]dA[ms]dT*d[5mC]*dT*dT*dT*dA*dT[ms]kT*kA*dA[ms]kA; antisense) [Compound 1785616] | 77 % control | 57 % control | 47 % control | 27 % control | 47 % control | 34 % control | 47 % control | 66 % control | 
4 | 1778127: modified oligonucleotide complementary to human APOE RNA (eA*e[5mC]eTeTkGkG*dT*dG[ms]dA[ms]dA*dT*d[5mC]*dT*dT*dT*dA[ms]kTeT[ms]eA[ms]eA; antisense) [compound 1778127] | 57 % control | 43 % control | 28 % control | 14 % control | 48 % control | 25 % control | 32 % control | 53 % control | APOE RNA (% UTC) 5 nM (human APOE RNA [5]; HepG2 cells, electroporation, 24-hour treatment, 5 nM, Table 8): 98 % UTC; APOE RNA (% UTC) 13 nM (human APOE RNA [5]; HepG2 cells, electroporation, 24-hour treatment, 13 nM, Table 8): 88 % UTC; APOE RNA (% UTC) 33 nM (human APOE RNA [5]; HepG2 cells, electroporation, 24-hour treatment, 33 nM, Table 8): 85 % UTC; APOE RNA (% UTC) 82 nM (human APOE RNA [5]; HepG2 cells, electroporation, 24-hour treatment, 82 nM, Table 8): 82 % UTC; APOE RNA (% UTC) 205 nM (human APOE RNA [5]; HepG2 cells, electroporation, 24-hour treatment, 205 nM, Table 8): 55 % UTC; APOE RNA (% UTC) 512 nM (human APOE RNA [5]; HepG2 cells, electroporation, 24-hour treatment, 512 nM, Table 8): 31 % UTC; APOE RNA (% UTC) 1,280 nM (human APOE RNA [5]; HepG2 cells, electroporation, 24-hour treatment, 1,280 nM, Table 8): 30 % UTC; APOE RNA (% UTC) 3,200 nM (human APOE RNA [5]; HepG2 cells, electroporation, 24-hour treatment, 3,200 nM, Table 8): 16 % UTC; APOE RNA (% UTC) 8,000 nM (human APOE RNA [5]; HepG2 cells, electroporation, 24-hour treatment, 8,000 nM, Table 8): 14 % UTC; APOE RNA (% UTC) 20,000 nM (human APOE RNA [5]; HepG2 cells, electroporation, 24-hour treatment, 20,000 nM, Table 8): 4 % UTC; IC50 (human APOE RNA [5]; reduction of human APOE RNA, HepG2 cells, electroporation, 24-hour treatment, Table 8): 310 nM
5 | 1778126 (eA*e[5mC]eTeTkG*kG*dT*dG[ms]dA[ms]dA*dT*d[5mC]*dT*dT*dT*dA[ms]kT*eT*eA*eA; antisense) [Compound 1778126] | 52 % control | 35 % control | 23 % control | 20 % control | 37 % control | 22 % control | 41 % control | 72 % control | 
6 | 1785619 (k[5mC]*dT[ms]dT[ms]kG*dG[ms]kT*dG*dA[ms]dA[ms]dT*d[5mC]*dT*dT*dT*dA[ms]dT*kT*kA*dA[ms]kA) [Compound 1785619] | 58 % control | 59 % control | 40 % control | 27 % control | 40 % control | 41 % control | 41 % control | 41 % control | 
7 | 1757572 (eA*e[5mC]eTeT*kG*kG*dT*dG[ms]dA[ms]dA[ms]dT*d[5mC]*dT*dT*dT*dA[ms]eT*eT*eA*eA; antisense) [Compound 1757572] | 51 % control | 69 % control |  |  |  |  | 50 % control | 38 % control | APOE RNA (% UTC) (human APOE RNA [5]; 5 nM, HepG2, electroporation, 16-hour treatment): 114 % UTC; APOE RNA (% UTC) (human APOE RNA [5]; 13 nM, HepG2, electroporation, 16-hour treatment): 95 % UTC; APOE RNA (% UTC) (human APOE RNA [5]; 33 nM, HepG2, electroporation, 16-hour treatment): 107 % UTC; APOE RNA (% UTC) (human APOE RNA [5]; 82 nM, HepG2, electroporation, 16-hour treatment): 96 % UTC; APOE RNA (% UTC) (human APOE RNA [5]; 205 nM, HepG2, electroporation, 16-hour treatment): 83 % UTC; APOE RNA (% UTC) (human APOE RNA [5]; 512 nM, HepG2, electroporation, 16-hour treatment): 67 % UTC; APOE RNA (% UTC) (human APOE RNA [5]; 1,280 nM, HepG2, electroporation, 16-hour treatment): 66 % UTC; APOE RNA (% UTC) (human APOE RNA [5]; 3,200 nM, HepG2, electroporation, 16-hour treatment): 51 % UTC; APOE RNA (% UTC) (human APOE RNA [5]; 8,000 nM, HepG2, electroporation, 16-hour treatment): 26 % UTC; APOE RNA (% UTC) (human APOE RNA [5]; 20,000 nM, HepG2, electroporation, 16-hour treatment): 10 % UTC; IC50 (human APOE RNA [5]; HepG2, electroporation, 16-hour treatment): 2350 nM
8 | 1778120 (eA*e[5mC]eTeTeGeG*dT*dG[ms]dA[ms]dA*dT*d[5mC]*dT*dT*dT*dA[ms]kTeT*eA*eA; antisense) [Compound 1778120] | 78 % control | 44 % control | 57 % control | 24 % control | 75 % control | 46 % control | 47 % control | 58 % control | 
9 | 1785600 (k[5mC]*kT*kT*dG[ms]dG[ms]dT[ms]dG*dA*dA*dT*d[5mC]*dT[ms]dT[ms]dT[ms]dA*dT*kT*kA*dA[ms]kA; antisense) [Compound 1785600] | 60 % control | 33 % control | 36 % control | 26 % control | 39 % control | 30 % control | 46 % control | 51 % control | 
10 | 1778117 (eA*e[5mC]eTeTeG*eG*dT*dG[ms]dA[ms]dA*dT*d[5mC]*dT*dT*dT*dA[ms]kT*eT*eA*eA; antisense) [Compound 1778117] | 72 % control | 36 % control | 49 % control | 28 % control | 65 % control | 36 % control | 46 % control | 114 % control | 
11 | 1778112 (eA*e[5mC]eTeTeGkG*dT*dG[ms]dA[ms]dA*dT*d[5mC]*dT*dT*dT*dA[ms]eTeT*eA*eA; antisense) [Compound 1778112] | 67 % control | 25 % control | 49 % control | 23 % control | 63 % control | 25 % control | 46 % control | 49 % control | 
